{"source": "ChEMBL document CHEMBL1201861", "about": "“Genomics of Drug Sensitity in Cancer screening data, Wellcome Trust Sanger Institute”", "data": [{"tested_on": "NCI-H1355", "experiment": "cells", "assay_type": "functional, cell-based, Homo sapiens", "details": "Homo sapiens, NCI-H1355", "units": {"IC50": "µM"}, "description": "SANGER: Inhibition of human NCI-H1355 cell growth in a cell viability assay.", "values": [{"smiles": "Cc1cn(-c2cc(NC(=O)c3ccc(C)c(Nc4nccc(-c5cccnc5)n4)c3)cc(C(F)(F)F)c2)cn1", "note": "[NILOTINIB]", "IC50": "> 2"}]}, {"tested_on": "ES3", "experiment": "cells", "assay_type": "functional, cell-based, Homo sapiens", "details": "Homo sapiens, ES3", "units": {"IC50": "µM"}, "description": "SANGER: Inhibition of human ES3 cell growth in a cell viability assay.", "values": [{"smiles": "Cc1cn(-c2cc(NC(=O)c3ccc(C)c(Nc4nccc(-c5cccnc5)n4)c3)cc(C(F)(F)F)c2)cn1", "note": "[NILOTINIB]", "IC50": "> 2"}]}, {"tested_on": "HH", "experiment": "cells", "assay_type": "functional, cell-based, Homo sapiens", "details": "Homo sapiens, HH", "units": {"IC50": "µM"}, "description": "SANGER: Inhibition of human HH cell growth in a cell viability assay.", "values": [{"smiles": "Cc1cn(-c2cc(NC(=O)c3ccc(C)c(Nc4nccc(-c5cccnc5)n4)c3)cc(C(F)(F)F)c2)cn1", "note": "[NILOTINIB]", "IC50": "> 2"}]}, {"tested_on": "EW-13", "experiment": "cells", "assay_type": "functional, cell-based, Homo sapiens", "details": "Homo sapiens, EW-13", "units": {"IC50": "µM"}, "description": "SANGER: Inhibition of human EW-13 cell growth in a cell viability assay.", "values": [{"smiles": "Cc1cn(-c2cc(NC(=O)c3ccc(C)c(Nc4nccc(-c5cccnc5)n4)c3)cc(C(F)(F)F)c2)cn1", "note": "[NILOTINIB]", "IC50": "> 2"}]}, {"tested_on": "C2BBe1", "experiment": "cells", "assay_type": "functional, cell-based, Homo sapiens", "details": "Homo sapiens, C2BBe1", "units": {"IC50": "µM"}, "description": "SANGER: Inhibition of human C2BBe1 cell growth in a cell viability assay.", "values": [{"smiles": "Cc1cn(-c2cc(NC(=O)c3ccc(C)c(Nc4nccc(-c5cccnc5)n4)c3)cc(C(F)(F)F)c2)cn1", "note": "[NILOTINIB]", "IC50": "> 2"}]}, {"tested_on": "DOHH-2", "experiment": "cells", "assay_type": "functional, cell-based, Homo sapiens", "details": "Homo sapiens, DOHH-2", "units": {"IC50": "µM"}, "description": "SANGER: Inhibition of human DOHH-2 cell growth in a cell viability assay.", "values": [{"smiles": "Cc1cn(-c2cc(NC(=O)c3ccc(C)c(Nc4nccc(-c5cccnc5)n4)c3)cc(C(F)(F)F)c2)cn1", "note": "[NILOTINIB]", "IC50": "> 2"}]}, {"tested_on": "NCI-H526", "experiment": "cells", "assay_type": "functional, cell-based, Homo sapiens", "details": "Homo sapiens, NCI-H526", "units": {"IC50": "µM"}, "description": "SANGER: Inhibition of human NCI-H526 cell growth in a cell viability assay.", "values": [{"smiles": "Cc1cn(-c2cc(NC(=O)c3ccc(C)c(Nc4nccc(-c5cccnc5)n4)c3)cc(C(F)(F)F)c2)cn1", "note": "[NILOTINIB]", "IC50": "> 2"}]}, {"tested_on": "K5", "experiment": "cells", "assay_type": "functional, cell-based, Homo sapiens", "details": "Homo sapiens, K5", "units": {"IC50": "µM"}, "description": "SANGER: Inhibition of human K5 cell growth in a cell viability assay.", "values": [{"smiles": "Cc1cn(-c2cc(NC(=O)c3ccc(C)c(Nc4nccc(-c5cccnc5)n4)c3)cc(C(F)(F)F)c2)cn1", "note": "[NILOTINIB]", "IC50": "> 2"}]}, {"tested_on": "NMC-G1", "experiment": "cells", "assay_type": "functional, cell-based, Homo sapiens", "details": "Homo sapiens, NMC-G1", "units": {"IC50": "µM"}, "description": "SANGER: Inhibition of human NMC-G1 cell growth in a cell viability assay.", "values": [{"smiles": "Cc1cn(-c2cc(NC(=O)c3ccc(C)c(Nc4nccc(-c5cccnc5)n4)c3)cc(C(F)(F)F)c2)cn1", "note": "[NILOTINIB]", "IC50": "> 2"}]}, {"tested_on": "JVM-3", "experiment": "cells", "assay_type": "functional, cell-based, Homo sapiens", "details": "Homo sapiens, JVM-3", "units": {"IC50": "µM"}, "description": "SANGER: Inhibition of human JVM-3 cell growth in a cell viability assay.", "values": [{"smiles": "Cc1cn(-c2cc(NC(=O)c3ccc(C)c(Nc4nccc(-c5cccnc5)n4)c3)cc(C(F)(F)F)c2)cn1", "note": "[NILOTINIB]", "IC50": "> 2"}]}, {"tested_on": "ATN-1", "experiment": "cells", "assay_type": "functional, cell-based, Homo sapiens", "details": "Homo sapiens, ATN-1", "units": {"IC50": "µM"}, "description": "SANGER: Inhibition of human ATN-1 cell growth in a cell viability assay.", "values": [{"smiles": "Cc1cn(-c2cc(NC(=O)c3ccc(C)c(Nc4nccc(-c5cccnc5)n4)c3)cc(C(F)(F)F)c2)cn1", "note": "[NILOTINIB]", "IC50": "> 2"}]}, {"tested_on": "LB2518-MEL", "experiment": "cells", "assay_type": "functional, cell-based, Homo sapiens", "details": "Homo sapiens, LB2518-MEL", "units": {"IC50": "µM"}, "description": "SANGER: Inhibition of human LB2518-MEL cell growth in a cell viability assay.", "values": [{"smiles": "Cc1cn(-c2cc(NC(=O)c3ccc(C)c(Nc4nccc(-c5cccnc5)n4)c3)cc(C(F)(F)F)c2)cn1", "note": "[NILOTINIB]", "IC50": "> 2"}]}, {"tested_on": "CAS-1", "experiment": "cells", "assay_type": "functional, cell-based, Homo sapiens", "details": "Homo sapiens, CAS-1", "units": {"IC50": "µM"}, "description": "SANGER: Inhibition of human CAS-1 cell growth in a cell viability assay.", "values": [{"smiles": "Cc1cn(-c2cc(NC(=O)c3ccc(C)c(Nc4nccc(-c5cccnc5)n4)c3)cc(C(F)(F)F)c2)cn1", "note": "[NILOTINIB]", "IC50": "> 2"}]}, {"tested_on": "MS-1", "experiment": "cells", "assay_type": "functional, cell-based, Homo sapiens", "details": "Homo sapiens, MS-1", "units": {"IC50": "µM"}, "description": "SANGER: Inhibition of human MS-1 cell growth in a cell viability assay.", "values": [{"smiles": "Cc1cn(-c2cc(NC(=O)c3ccc(C)c(Nc4nccc(-c5cccnc5)n4)c3)cc(C(F)(F)F)c2)cn1", "note": "[NILOTINIB]", "IC50": "> 2"}]}, {"tested_on": "ETK-1", "experiment": "cells", "assay_type": "functional, cell-based, Homo sapiens", "details": "Homo sapiens, ETK-1", "units": {"IC50": "µM"}, "description": "SANGER: Inhibition of human ETK-1 cell growth in a cell viability assay.", "values": [{"smiles": "Cc1cn(-c2cc(NC(=O)c3ccc(C)c(Nc4nccc(-c5cccnc5)n4)c3)cc(C(F)(F)F)c2)cn1", "note": "[NILOTINIB]", "IC50": "> 2"}]}, {"tested_on": "SK-NEP-1", "experiment": "cells", "assay_type": "functional, cell-based, Homo sapiens", "details": "Homo sapiens, SK-NEP-1", "units": {"IC50": "µM"}, "description": "SANGER: Inhibition of human SK-NEP-1 cell growth in a cell viability assay.", "values": [{"smiles": "Cc1cn(-c2cc(NC(=O)c3ccc(C)c(Nc4nccc(-c5cccnc5)n4)c3)cc(C(F)(F)F)c2)cn1", "note": "[NILOTINIB]", "IC50": "> 2"}]}, {"tested_on": "EW-3", "experiment": "cells", "assay_type": "functional, cell-based, Homo sapiens", "details": "Homo sapiens, EW-3", "units": {"IC50": "µM"}, "description": "SANGER: Inhibition of human EW-3 cell growth in a cell viability assay.", "values": [{"smiles": "Cc1cn(-c2cc(NC(=O)c3ccc(C)c(Nc4nccc(-c5cccnc5)n4)c3)cc(C(F)(F)F)c2)cn1", "note": "[NILOTINIB]", "IC50": "> 2"}]}, {"tested_on": "EW-11", "experiment": "cells", "assay_type": "functional, cell-based, Homo sapiens", "details": "Homo sapiens, EW-11", "units": {"IC50": "µM"}, "description": "SANGER: Inhibition of human EW-11 cell growth in a cell viability assay.", "values": [{"smiles": "Cc1cn(-c2cc(NC(=O)c3ccc(C)c(Nc4nccc(-c5cccnc5)n4)c3)cc(C(F)(F)F)c2)cn1", "note": "[NILOTINIB]", "IC50": "> 2"}]}, {"tested_on": "RPMI-8226", "experiment": "cells", "assay_type": "functional, cell-based, Homo sapiens", "details": "Homo sapiens, RPMI-8226", "units": {"IC50": "µM"}, "description": "SANGER: Inhibition of human RPMI-8226 cell growth in a cell viability assay.", "values": [{"smiles": "Cc1cn(-c2cc(NC(=O)c3ccc(C)c(Nc4nccc(-c5cccnc5)n4)c3)cc(C(F)(F)F)c2)cn1", "note": "[NILOTINIB]", "IC50": "> 2"}]}, {"tested_on": "RH-1", "experiment": "cells", "assay_type": "functional, cell-based, Homo sapiens", "details": "Homo sapiens, RH-1", "units": {"IC50": "µM"}, "description": "SANGER: Inhibition of human RH-1 cell growth in a cell viability assay.", "values": [{"smiles": "Cc1cn(-c2cc(NC(=O)c3ccc(C)c(Nc4nccc(-c5cccnc5)n4)c3)cc(C(F)(F)F)c2)cn1", "note": "[NILOTINIB]", "IC50": "> 2"}]}, {"tested_on": "MFM-223", "experiment": "cells", "assay_type": "functional, cell-based, Homo sapiens", "details": "Homo sapiens, MFM-223", "units": {"IC50": "µM"}, "description": "SANGER: Inhibition of human MFM-223 cell growth in a cell viability assay.", "values": [{"smiles": "Cc1cn(-c2cc(NC(=O)c3ccc(C)c(Nc4nccc(-c5cccnc5)n4)c3)cc(C(F)(F)F)c2)cn1", "note": "[NILOTINIB]", "IC50": "> 2"}]}, {"tested_on": "DMS-114", "experiment": "cells", "assay_type": "functional, cell-based, Homo sapiens", "details": "Homo sapiens, DMS-114", "units": {"IC50": "µM"}, "values": [{"smiles": "Cc1cn(-c2cc(NC(=O)c3ccc(C)c(Nc4nccc(-c5cccnc5)n4)c3)cc(C(F)(F)F)c2)cn1", "note": "[NILOTINIB]", "IC50": "> 2"}]}, {"tested_on": "IST-SL1", "experiment": "cells", "assay_type": "functional, cell-based, Homo sapiens", "details": "Homo sapiens, IST-SL1", "units": {"IC50": "µM"}, "description": "SANGER: Inhibition of human IST-SL1 cell growth in a cell viability assay.", "values": [{"smiles": "Cc1cn(-c2cc(NC(=O)c3ccc(C)c(Nc4nccc(-c5cccnc5)n4)c3)cc(C(F)(F)F)c2)cn1", "note": "[NILOTINIB]", "IC50": "> 2"}]}, {"tested_on": "KGN", "experiment": "cells", "assay_type": "functional, cell-based, Homo sapiens", "details": "Homo sapiens, KGN", "units": {"IC50": "µM"}, "description": "SANGER: Inhibition of human KGN cell growth in a cell viability assay.", "values": [{"smiles": "Cc1cn(-c2cc(NC(=O)c3ccc(C)c(Nc4nccc(-c5cccnc5)n4)c3)cc(C(F)(F)F)c2)cn1", "note": "[NILOTINIB]", "IC50": "> 2"}]}]}
